Test results from patent US7241795B2, “Synthesis and antimicrobial activity of novel dicationic “reversed amidines”” (The University of North Carolina at Chapel Hill, priority 2000, dated 2007).
Converted amounts (≈) assume the structure as drawn. Where a name gives a salt, the structure may show the parent alone.

Key:
Candida albicans = experiment: Antifungal broth macrodilution susceptibility testing (MIC/MFC), yeast; format: cell-based; conditions: for MFC / MIC: Candida albicans; for MFC: read-out: C. albicans MFC; for MIC: read-out: C. albicans MIC
Aspergillus fumigatus = experiment: Antifungal broth macrodilution susceptibility testing (MIC/MFC), mold; format: cell-based; conditions: Aspergillus fumigatus, strain 168.95; for MFC: read-out: Aspergillus fumigatus MFC; for MIC: read-out: Aspergillus fumigatus MIC
poly dA•dT = experiment: DNA thermal melting (ΔTm); format: binding
d(CGCGAATTCGCG)2 = experiment: DNA thermal melting (ΔTm); format: binding; conditions: oligo = d(CGCGAATTCGCG)2
M. tuberculosis H37Rv = experiment: Microplate Alamar Blue Assay (MABA) in BACTEC 12B medium; format: cell-based, Mycobacterium tuberculosis; conditions: for MIC / inhibition at 6.25 µg/mL: Mycobacterium tuberculosis, H37RV; for MIC: read-out: MTb MIC; for inhibition at 6.25 µg/mL: % Inhibition at 6.25 μg/ml, read-out: MTb % Inh
[1] = reference strain C. albicans A39
[2] = lowest concentration effecting ≧90% reduction of fluorescence

| SMILES | MFC (Candida albicans; [1]) [µg/mL] | MIC (Candida albicans; [1]) [µg/mL] | MFC (Aspergillus fumigatus) [µg/mL] | MIC (Aspergillus fumigatus) [µg/mL] | DNA Affinities ΔTm (AT) (poly dA•dT) | DNA Affinities ΔTm (oligo) (d(CGCGAATTCGCG)2) | melting point | further results |
| --- | --- | --- | --- | --- | --- | --- | --- | --- |
| Cc1cc(N=Nc2ccccn2)cc(C)c1-c1ccc(-c2c(C)cc(N=Nc3ccccn3)cc2C)o1 [Compound 6m, 2,5-Bis[2,6-dimethyl-4-(2-pyridylimino)aminophenyl]furan] | > 100 | 10 (≈ 20.6 µM) | > 100 | 10 (≈ 20.6 µM) | 5.7 | 1.2 |  |  |
| Cc1ccc(C(=N)Nc2ccc(-c3ccc(-c4ccc(NC(=N)c5ccc(C)cc5)cc4)o3)cc2)cc1.Cl.Cl [Compound 6c, 2,5-Bis [4-[(4-methylbenzimidoyl)amino]phenyl]furan Dihydrochloride] |  | > 100 |  |  | >28 | 15.4 | 348 to 350.5 °C | MIC (M. tuberculosis H37Rv; [2]): ≤ 6.25 µg/mL |
| Cc1cc(NC(=N)c2ccccc2)ccc1-c1ccc(-c2ccc(NC(=N)c3ccccc3)cc2C)o1 [Compound 6g, 2,5-Bis[4-(benzimidoyl)amino-2-methylphenyl]furan] | 6.25 (≈ 12.9 µM) | 3.12 (≈ 6.44 µM) |  |  | 24.9 | 7.8 |  |  |
| Cl.Cl.N=C(Nc1ccc(-c2ccc(-c3ccc(NC(=N)c4ccccc4)cc3)o2)cc1)c1ccccc1 [Compound 6b, 2,5-Bis[4-(benzimidoylamino)phenyl]furan Dihydrochloride] | 50 | 25 |  |  | 28.6 | 15.0 |  |  |
| Cc1ccc(N=Nc2ccc(-c3ccc(-c4ccc(N=Nc5ccc(C)cn5)cc4C)o3)c(C)c2)nc1 (as salt: hydrochloride) [Compound 6j, 2,5-Bis[2-methyl-4-(5-methyl-2-pyridylimino)aminophenyl]furan] |  |  |  |  |  |  | 156 to 158 °C |  |
| N=C(N)Nc1ccc(-c2ccc(-c3ccc(NC(=N)N)cc3)s2)cc1 [DB 686] |  |  |  |  |  |  |  | C. albicans MFC (Candida albicans; [1]): 4.17 µg/mL; C. albicans MIC (Candida albicans; [1]): 4.17 µg/mL; MTb MIC (M. tuberculosis H37Rv; H37Rv, lowest concentration effecting ≧90% reduction of fluorescence): <1 µg/mL |
| N=C(Nc1ccc(-c2ccc(-c3ccc(NC(=N)c4ccccc4)cc3)s2)cc1)c1ccccc1 (hydrate or solvate) [DB 653, 2,5-Bis[4-(benzimidoyl)aminophenyl]thiophene] |  |  |  |  |  |  | 284 to 286 °C (dec.) |  |
| c1cc(-c2ccc(-c3ccc(N=NC4CCCCC4)cc3)o2)ccc1N=NC1CCCCC1 [Compound 6d, 2,5-Bis[4-(cyclohexylimino)aminophenyl]furan] |  | > 100 | > 100 | 100 (≈ 227 µM) | 26.7 | 12.8 |  | activity against M. tuberculosis, in words (M. tuberculosis H37Rv): some activity; MIC (M. tuberculosis H37Rv; [2]): ≤ 6.25 µg/mL |
| Clc1cc(N=Nc2ccccn2)ccc1-c1ccc(-c2ccc(N=Nc3ccccn3)cc2Cl)o1 (as salt: hydrochloride) [Compound 6l, 2,5-Bis[2-chloro-4-(2-pyridylimino)aminophenyl]furan] |  |  |  |  |  |  | 189 to 190 °C |  |
| c1ccc(N=Nc2ccc(-c3ccc(-c4ccc(N=Nc5ccccn5)cc4)o3)cc2)nc1 (as salt: hydrochloride) (hydrate or solvate) [Compound 6a, 2,5-Bis[4-(2-pyridylimino)aminophenyl]furan] |  |  |  |  |  |  | 221 to 223 °C |  |
| OC(Cn1cncn1)(Cn1cncn1)c1ccc(F)cc1F [Fluconazole, reference compound] |  |  |  |  |  |  |  | activity against C. albicans, in words (Candida albicans): fungistatic |
| Cc1cc(NC(=N)N)ccc1-c1ccc(-c2ccc(NC(=N)N)cc2C)o1.Cl.Cl [Compound 5b, 2,5-Bis(4-guanidino-2-methylphenyl)furan dihydrochloride] | 2.08 | 1 to 3 | 33.4 | 33.4 | 17.8 | 6.9 | 265 to 271 °C (dec.) | activity against C. albicans, in words (Candida albicans): fungicidal; MIC (M. tuberculosis H37Rv; [2]): 1 to 3 µg/mL |
| N=C(N)c1ccc(-c2ccc(-c3ccc(C(=N)N)cc3)o2)cc1 [2,5-bis [4-amidinophenyl]furan, reference compound] |  |  |  |  | 25 | 11.7 |  |  |
| Cl.Cl.N=C(N)Nc1ccc(-c2ccc(-c3ccc(NC(=N)N)cc3)o2)cc1 [Compound 5a, 2,5-Bis(4-guanidinophenyl)furan dihydrochloride] | 25 |  | > 100 | 100 | 21.6 | 10.8 |  | activity against C. albicans, in words (Candida albicans): fungicidal |
| Cc1cc(NC(=N)N)cc(C)c1-c1ccc(-c2c(C)cc(NC(=N)N)cc2C)o1.Cl.Cl [Compound 5f, 2,5-Bis(4-guanidino-2,6-dimethylphenyl)furan dihydrochloride] |  |  |  |  | 2.7 | 1.4 |  |  |
| Cl.Cl.N=C(N)Nc1ccc(-c2ccc(-c3ccc(NC(=N)N)cc3Cl)o2)c(Cl)c1 [Compound 5d, 2,5-Bis(2-chloro-4-guanidinophenyl)furan dihydrochloride] | 100 | 10 | 100 | 100 | 26.1 | 4.7 | 300 to 304 °C (dec.) | MIC (M. tuberculosis H37Rv; [2]): 4 µg/mL |
| Br.Br.CC(=N)Nc1ccc(-c2ccc(-c3ccc(NC(C)=N)cc3)o2)cc1 [Compound 6e, 2,5-Bis[4-(acetimidoyl)aminophenyl]furan Dihydrobromide] |  | > 100 | > 100 | 100 | 15.9 | 6.0 | 307 to 309.5 °C (dec.) | inhibition at 6.25 µg/mL (M. tuberculosis H37Rv): 0% |
| Cc1cc(N=Nc2ccc3ccccc3n2)ccc1-c1ccc(-c2ccc(N=Nc3ccc4ccccc4n3)cc2C)o1 (as salt: hydrochloride) [Compound 6i, 2,5-Bis[2-methyl-4-(2-quinolylimino)aminophenyl]furan] |  |  |  |  |  |  | 168 to 169 °C |  |
| COc1cc(N=Nc2ccccn2)ccc1-c1ccc(-c2ccc(N=Nc3ccccn3)cc2OC)o1 (as salt: hydrochloride) [Compound 6k, 2,5-Bis[2-methoxy-4-(2-pyridylimino)aminophenyl]furan] |  |  |  |  |  |  | 196 to 197 °C |  |
| Br.Br.CC(=N)Nc1ccc(-c2ccc(-c3ccc(NC(C)=N)cc3C)o2)c(C)c1 [Compound 6f, 2,5-Bis [4-(acetimidoyl)amino-2-methylphenyl]furan Dihydrobromide] |  | > 100 |  | > 100 | 14.5 | 2.4 | 282.5 to 284 °C (dec.) | inhibition at 6.25 µg/mL (M. tuberculosis H37Rv): 18% |
| Cl.Cl.N=C(N)Nc1ccc(-c2ccc(-c3ccc(NC(=N)N)cc3C(F)(F)F)o2)c(C(F)(F)F)c1 [Compound 5e, 2,5-Bis (4-guanidino-2-trifluoromethylphenyl) furan dihydrochloride] | 10 | 10 | 100 | 100 | 5.9 |  |  | MIC (M. tuberculosis H37Rv; [2]): 8 µg/mL |
| N=C(Nc1ccc(-c2ccc(-c3ccc(NC(=N)c4ccccc4)cc3)s2)cc1)c1ccccc1 [DB 653, 2,5-Bis[4-(benzimidoyl)aminophenyl]thiophene] |  | > 100 |  | > 100 | 20.2 | 12.8 |  |  |
| COc1cc(NC(=N)N)ccc1-c1ccc(-c2ccc(NC(=N)N)cc2OC)o1.Cl.Cl [Compound 5c, 2,5-Bis(4-guanidino-2-methoxyphenyl)furan dihydrochloride] | 100 | 10 | 100 | 100 | 15.2 | 2.8 |  | MIC (M. tuberculosis H37Rv; [2]): 16 µg/mL |
